# Reference: patent US20240076347A1, “METHODS FOR PREVENTING FUNGAL INFECTIONS” (Cidara Therapeutics, Inc., priority 2016, published 2024)
# Key:
# [1] = system: Candida auris; assay: Murine model of disseminated candidiasis (immunosuppressed CD-1 mice), treatment; format: in vivo; conditions: 20 mg/kg PO, 2 doses; Day 14
# Description: Female 6-8 week old CD-1 mice were immunosuppressed with cyclophosphamide (200 mg/kg) 3 days prior to infection and 150 mg/kg 1 day post-infection. On the day of infection, mice were inoculated with 3×10^7 C. auris blastospores via the lateral tail vein. Mice were randomized into 5 groups (n=5 for colony forming units (CFU) and n=10 for survival): CD101 20 mg/kg administered by intraperitoneal (IP) injection, fluconazole 20 mg/kg administered per os (PO), amphotericin B 0.3 mg/kg IP, and a vehicle control. Treatments were administered 2 hours post-infection (Day 1) and again on Day 4 of the study for a total of 2 doses. Mice were monitored daily and a survival curve was generated. CFU groups were sacrificed on Day 8 of the study. One kidney was removed from each mouse, homogenized, plated on potato dextrose agar (PDA), and incubated at 35° C. for 2 days to determine CFU. The remaining survival mice were monitored until the end of the study (Day 14).
# [2] = system: C. albicans strain 529L; assay: Rat model of vulvovaginal candidiasis, vaginal lavage and tissue burden; format: in vivo, Candida albicans
# Description: Animal Strain. Wistar rats were supplied by Harlan Laboratories UK and were specific pathogen free. Rats weighed […] at the time of surgery. Ovariectomies were performed. Rats were allowed 4-7 days recovery before transportation to the facility where the experiment was to be performed. Following arrival, rats were allowed at least 4 days acclimatization before start of the experiment. Rats weighed 100-120 g at the time of ovariectomy and were about 300 g at start of the experiment.
# Pre-conditioning. Female Wistar rats underwent ovariectomy at least 10 days prior to the study commencing. They were further pre-conditioned by treatment with 5 mg/kg 17-β-estradiol administered subcutaneously (SC) every other day on Days −7, −5, −3 and −1 prior to infection with C. albicans strain 529. Estradiol treatment continued every other day throughout the study to 7 days post-infection.
# Yeast Isolate. Candida albicans strain 529L was used in this chronic rat vaginal infection model.
# Infection. Yeast strains were inoculated aerobically onto Sabouraud dextrose agar media (SAB) containing 0.05 mg/mL chloramphenicol and incubated at 30° C. for 48-72 h. 18-24 h prior to infection, Yeast Peptone Dextrose (YPD) broths were inoculated with 2-3 isolated colonies from agar plates and incubated overnight (37° C. on an orbital shaker). Broths containing C. albicans strain 529L were washed 3 times with sterile phosphate buffered saline (PBS) before dilution to the correct inoculum for infection. Cell counts were determined using a haemocytometer and confirmed by quantitative culture on Sabouraud dextrose agar.
# Rats were infected with 0.1 mL by intravaginal administration under inhaled isoflurane anaesthesia using about 9.8×10^5 CFU/mL (9.8×10^4 CFU/Rat) C. albicans strain 529L
# Treatment. […] The fluconazole treatment also started at 24 h post infection but was administered by the PO route at the dose volume and frequency shown in Table 7. The study design is further outlined in FIG. 19.
# (§1) Reduction in weight and general loss of condition due to estradiol treatment are also typical in this rat model. Colonization with C. albicans was determined by quantitative culture of daily vaginal lavage samples. Rats were euthanized 9 days post infection and C. albicans determined by quantitative culture of vaginal tissue (including uterine horns).
# Lavage samples were obtained on Days 1 (pre-treatment), 2, 3, 5, 7, and 9 days post infection by flushing rat vaginas 4 times with 0.1 mL pre-warmed sterile PBS. Following euthanasia, vaginal tissue including uterine horns was removed prior to weighing. Tissues were homogenized in 2 mL sterile PBS using a bead-beater. Vaginal wash and tissue homogenates were diluted appropriately then quantitatively cultured on to Sabouraud dextrose agar containing 0.05 mg/mL chloramphenicol and incubated at 37° C. for up to 72 h before being counted.
# Statistical analysis. Data were analyzed using StatsDirect software (version 2.7.8) using the non-parametric Kruskal-Wallis test and if this was statistically significant all pairwise comparisons were analyzed (Conover-Inman).
# [3] = system: C. albicans SC-5314 biofilms; assay: Adhesion phase biofilms (prevention) on silicone elastomer discs; format: cell-based, Candida albicans; conditions: 1 and 4 μg/ml
# Description: (§2) Biofilms were formed on silicone elastomer (SE) discs using a catheter-associated-biofilm model (Chandra et al., Nature Protocols 3:1909, 2008; Chandra et al., J. […] Chandra et al., J. Dental Research 80: 903, 2001). For evaluation of activity against adhesion phase biofilms (prevention), Candida cells were adhered to catheter discs for 90 min. […] Discs incubated with fluconazole or media alone were used as controls in all experiments. […] Chandra et al., J. […] Chandra et al., J. Dental Research 80: 903, 2001). Following incubation with drugs, discs were transferred to fresh plates containing phosphate buffered saline with XTT and menadione, incubated for 3 h at 37° C. and optical density was read at 492 nm. Separate batches of biofilms were stained with fluorescent dyes (FUN1™, CONA) and observed under Confocal Scanning Laser Microscope (CSLM) to evaluate biofilm architecture and thickness (Chandra et al., Nature Protocols 3:1909, 2008; Chandra et al., J. […] Statistical analyses for all data were performed using GraphPad Prism 6 software. Drug treated groups were compared to control untreated groups using unpaired t-tests.
# [4] = system: C. albicans SC-5314 biofilms; assay: Mature phase biofilms (treatment) on silicone elastomer discs; format: cell-based, Candida albicans; conditions: 1 and 4 μg/ml
# Description: as §2
# [5] = format: in vivo, Wistar rats; conditions: rat, in vivo
# Description: Endpoints. The rats were monitored at a frequency appropriate for their clinical condition. Rat weights were recorded at least once daily to ensure animals remained within ethical limits.
# as §1
# [6] = lavage Day 1 post treatment (Day 2 post infection), 20 mg/kg PO dosed once
# [7] = lavage Day 1 post treatment (Day 2 post infection), 20 mg/kg PO dosed twice
# [8] = lavage Day 2 post treatment (Day 3 post infection), 20 mg/kg PO dosed once
# [9] = lavage Day 2 post treatment (Day 3 post infection), 20 mg/kg PO dosed twice
# [10] = lavage Day 4 post treatment (Day 5 post infection), 20 mg/kg PO dosed once
# [11] = lavage Day 4 post treatment (Day 5 post infection), 20 mg/kg PO dosed twice
# [12] = lavage Day 6 post treatment (Day 7 post infection), 20 mg/kg PO dosed once
# [13] = lavage Day 6 post treatment (Day 7 post infection), 20 mg/kg PO dosed twice
# [14] = lavage Day 8 post treatment (Day 9 post infection), 20 mg/kg PO dosed once
# [15] = lavage Day 8 post treatment (Day 9 post infection), 20 mg/kg PO dosed twice
# [16] = terminal vaginal tissue Day +9 post infection, 20 mg/kg PO dosed once
# [17] = terminal vaginal tissue Day +9 post infection, 20 mg/kg PO dosed twice
# [18] = vaginal lavage Day 1 post infection, pre-treatment, 20 mg/kg PO dosed once group
# [19] = vaginal lavage Day 1 post infection, pre-treatment, 20 mg/kg PO dosed twice group
structure (smiles),measurement,setting,value
"OC(Cn1cncn1)(Cn1cncn1)c1ccc(F)cc1F [Fluconazole, fluconazole, reference compound]",percent survival at the end of the study,[1],0%
same,terminal vaginal tissue burden,"[2]; 20 mg/kg PO once or twice, all rats, Day 9",below the limit of detection
same,lavage burden,"[2]; Day 5 post infection, 20 mg/kg PO once or twice, all rats",below the limit of detection
same,Group Geometric mean,[2]; [6],1.50 × 10^2 CFU/mL
same,Log Group Geometric mean,[2]; [6],2.18 CFU/mL
same,Log reduction from vehicle control,[2]; [6],1.52 CFU/mL
same,Group Geometric mean,[2]; [7],1.27 × 10^2 CFU/mL
same,Log Group Geometric mean,[2]; [7],2.10 CFU/mL
same,Log reduction from vehicle control,[2]; [7],1.59 CFU/mL
same,"burden vs vehicle, statistics",[2]; lavage Day 2 post infection,neither the CD101 nor fluconazole burden was statistically different from the vehicle burden
same,reduction in burden,"[2]; lavage Day 2 post infection, fluconazole 20 mg/kg PO",about 1.6 Log10 CFU/mL
same,Group Geometric mean,[2]; [8],1.00 CFU/mL
same,Log Group Geometric mean,[2]; [8],0.00 CFU/mL
same,Log reduction from vehicle control,[2]; [8],3.57 CFU/mL
same,Group Geometric mean,[2]; [9],1.49 CFU/mL
same,Log Group Geometric mean,[2]; [9],0.17 CFU/mL
same,Log reduction from vehicle control,[2]; [9],3.40 CFU/mL
same,rats having burden below the limit of detection,"[2]; lavage Day 3 post infection, 20 mg/kg PO once or twice",11/12
same,"burden vs vehicle, statistics","[2]; lavage Day 3 post infection, all treatments",statistically different from the vehicle treatments
same,Group Geometric mean,[2]; [10],1.00 CFU/mL
same,Log Group Geometric mean,[2]; [10],0.00 CFU/mL
same,Log reduction from vehicle control,[2]; [10],4.22 CFU/mL
same,Group Geometric mean,[2]; [11],1.00 CFU/mL
same,Log Group Geometric mean,[2]; [11],0.00 CFU/mL
same,Log reduction from vehicle control,[2]; [11],4.22 CFU/mL
same,Group Geometric mean,[2]; [12],1.00 CFU/mL
same,Log Group Geometric mean,[2]; [12],0.00 CFU/mL
same,Log reduction from vehicle control,[2]; [12],4.18 CFU/mL
same,Group Geometric mean,[2]; [13],1.00 CFU/mL
same,Log Group Geometric mean,[2]; [13],0.00 CFU/mL
same,Log reduction from vehicle control,[2]; [13],4.18 CFU/mL
same,Group Geometric mean,[2]; [14],1.00 CFU/mL
same,Log Group Geometric mean,[2]; [14],0.00 CFU/mL
same,Log reduction from vehicle control,[2]; [14],4.30 CFU/mL
same,Group Geometric mean,[2]; [15],1.00 CFU/mL
same,Log Group Geometric mean,[2]; [15],0.00 CFU/mL
same,Log reduction from vehicle control,[2]; [15],4.30 CFU/mL
same,Group Geometric mean,[2]; [16],1.00 CFU/g
same,Log Group Geometric mean,[2]; [16],0.00 CFU/g
same,Log reduction from vehicle control,[2]; [16],5.49 CFU/g
same,Group Geometric mean,[2]; [17],1.00 CFU/g
same,Log Group Geometric mean,[2]; [17],0.00 CFU/g
same,Log reduction from vehicle control,[2]; [17],5.49 CFU/g
same,Group Geometric mean,[2]; [18],3.16 × 10^3 CFU/mL
same,Log Group Geometric mean,[2]; [18],3.50 CFU/mL
same,Log reduction from vehicle control,[2]; [18],−1.06 CFU/mL
same,Group Geometric mean,[2]; [19],1.04 × 10^3 CFU/mL
same,Log Group Geometric mean,[2]; [19],3.02 CFU/mL
same,Log reduction from vehicle control,[2]; [19],−0.58 CFU/mL
same,thickness of biofilms,[3],no effect on biofilm thickness
same,biofilm metabolic activity (XTT),"[3]; 24 h, P>0.05",did not inhibit biofilm formation
same,biofilm architecture (CSLM),[4],did not affect Candida biofilms
same,thickness of biofilms,[4],had no effect
same,biofilm metabolic activity (XTT),"[4]; 24 h, P>0.05",neither concentrations of fluconazole (1 and 4 μg/ml) affected these biofilms
same,tolerability,[5],well tolerated with no adverse events observed
